Experimental data published in ChEMBL document CHEMBL1201862, “PubChem BioAssay data set” (2004).
Active and inactive are the calls of the source. Cut-off read from the data, not from the text of the source, for most assays here: actives have a measured EC50 and inactives only a lower limit.

How the values were obtained:
[1] = molecular target: T1, Heat shock factor protein 1 (Mus musculus, UniProt P38532); experiment: HSF1 potentiators in luciferase reporter cells, confirmation, cell-based, NIH3T3, luminescence, dose retest (AID 435004); assay type: functional;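 note: stress induced by proteasome inhibitor MG132 added 30 min after compound; luciferase reporter driven by HSF1 response element in NIH3T3 cells; actives raise luminescence as potentiators of the MG132 stress response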
T1 sequence (P38532 whole entry): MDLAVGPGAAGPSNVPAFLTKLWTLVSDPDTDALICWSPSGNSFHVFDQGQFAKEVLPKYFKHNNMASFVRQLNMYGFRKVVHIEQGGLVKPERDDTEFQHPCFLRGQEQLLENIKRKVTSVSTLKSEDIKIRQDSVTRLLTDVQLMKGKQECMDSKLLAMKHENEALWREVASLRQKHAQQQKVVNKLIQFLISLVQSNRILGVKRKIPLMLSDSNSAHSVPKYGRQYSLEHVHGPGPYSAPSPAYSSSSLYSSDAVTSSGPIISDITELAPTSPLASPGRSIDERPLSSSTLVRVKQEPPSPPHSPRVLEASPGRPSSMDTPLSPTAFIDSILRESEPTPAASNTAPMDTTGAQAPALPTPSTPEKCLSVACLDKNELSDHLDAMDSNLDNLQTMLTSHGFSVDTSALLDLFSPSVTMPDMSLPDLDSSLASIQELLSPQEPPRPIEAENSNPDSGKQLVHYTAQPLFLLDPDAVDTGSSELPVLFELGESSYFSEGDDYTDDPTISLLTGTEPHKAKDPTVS

[2] = molecular target: T1, Heat shock factor protein 1; experiment: inhibition of MG132-induced HSE-luciferase signal, confirmation, cell-based, NIH3T3, luminescence, dose retest (AID 2382); assay type: functional;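 note: NIH3T3 fibroblasts with HSF1-driven luciferase reporter stressed by proteasome inhibitor MG132; luminescence from HSF1-driven luciferase expression after 8 hours of MG132 stress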
[3] = tested on: Streptococcus sp. 'group A'; experiment: growth inhibition of control SK(-) GAS strain, dose response, counter-screen for streptokinase expression inhibitor project, luminescence, kanamycin, BacTiterGlo, confirmation (AID 1900); assay type: functional, organism-based
Streptokinase A = molecular target: T2, Streptokinase A (Streptococcus pyogenes serotype M1, UniProt P10520); experiment: S. pyogenes streptokinase expression inhibitors, potency, dose response, plasminogen activation absorbance, OD405 (AID 1914); assay type: functional, Streptococcus pyogenes M1 GAS;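 note: secreted streptokinase activity via plasminogen activation per viability signal from cell pellet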
T2 sequence (P10520 whole entry): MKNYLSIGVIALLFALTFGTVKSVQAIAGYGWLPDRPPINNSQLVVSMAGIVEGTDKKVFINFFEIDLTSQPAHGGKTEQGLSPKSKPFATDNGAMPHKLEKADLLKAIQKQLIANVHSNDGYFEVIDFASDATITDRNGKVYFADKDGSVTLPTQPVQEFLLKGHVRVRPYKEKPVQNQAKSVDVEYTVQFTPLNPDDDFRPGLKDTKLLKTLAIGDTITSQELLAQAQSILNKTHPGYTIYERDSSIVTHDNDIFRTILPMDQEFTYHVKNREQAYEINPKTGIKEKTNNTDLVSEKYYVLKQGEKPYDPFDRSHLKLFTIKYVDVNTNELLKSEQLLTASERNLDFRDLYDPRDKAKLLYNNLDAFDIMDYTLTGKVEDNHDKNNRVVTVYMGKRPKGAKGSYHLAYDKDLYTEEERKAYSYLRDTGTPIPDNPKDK

Streptococcus = experiment: Group A Streptococcus viability loss, dose response, counter-screen for streptokinase expression inhibitor project, luminescence, BacTiterGlo (AID 1915); assay type: functional, organism-based;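 note: potency for reduction of bacterial viability or growth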
[4] = Luminescence Cell-Based Dose Response HTS to Identify Activators of Luciferase Translation or Activity in H4 […] Cells. [Related pubchem assays: 1829 (Project Summary), 1814 (Primary HTS)]; assay type: functional
H4 = experiment: Luminescence Cell-Based Dose Response HTS to Identify Activators of 5'UTR Stem-Loop Driven Prion Protein mRNA Translation in H4 Neuroglioblastoma Cells. [Related pubchem assays: 1829 (Project Summary), 1814 (Primary HTS)]; assay type: functional; details: Homo sapiens
[5] = Luminescence Cell-Based Dose Retest to Confirm Inhibitors of Cancer Stem Cells. [Related pubchem assays (depositor defined):AID2717, AID2721]; assay type: functional; details: Homo sapiens
INS1 = experiment: beta cell apoptosis inhibitors, cytokine rescue, dose response, luminescence, retest (AID 449756); assay type: functional, cell-based; details: Rattus norvegicus;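 note: cell death triggered by IL-1 beta plus TNF-alpha plus IFN-gamma mixture; protective hits raise ATP signal compared with cytokine alone wells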
[6] = NIH-3T3 fibroblast cytotoxicity, dose response, cytotoxicity control, cell-based, fluorescence, Alamar Blue, secondary assay (AID 2327); assay type: functional;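 note: NIH-3T3 mouse fibroblasts cultured with fluconazole at 8 µg/mL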
[7] = C. albicans growth with fluconazole, confirmation, fluorescence, retest (AID 2467); assay type: functional, cell-based
[8] = Shn3 3'UTR reporter inhibitors, dose response, cell-based, Clone20 osteoblasts, firefly luciferase, cherry-picked (AID 624132); assay type: functional;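 note: firefly luciferase luminescence from reporter carrying the Shn3 3'UTR in osteoblasts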
[9] = control 3'UTR Renilla luciferase suppression, dose response, counter-screen for Shn3 inhibitor project, cell-based, Clone20-Shn3RL, cherry-picked (AID 624133); assay type: functional

O=C(CCc1nnc(Cc2ccc(-c3ccccc3)cc2)o1)N1CCCC1
EC50 [1]: > 260 µM (inactive)

Cc1nc(C(=O)NNC(=O)c2cccc(Cl)c2)c(C(F)(F)F)o1
EC50 [2]: > 195 µM (not active)

COc1ccc(NC(=O)c2nn(C)c(=O)c3ccccc23)cc1S(=O)(=O)Nc1ccccc1Cl
EC50 [1]: 18.4 µM (active)

CC(=O)OC(C)C(=O)NS(=O)(=O)c1ccc(C)cc1 (stereo not drawn)
EC50 [1]: > 260 µM (inactive)

COc1ccc(C(=O)c2coc3ccc(O)c(CN(C)C)c23)cc1
EC50 [1]: > 260 µM (inactive)

COc1ccc(O)c(CN2CCC(n3nccc3NC(=O)CCOc3ccccc3)CC2)c1
EC50 [3]: > 150 µM (not active) | EC50 (Streptokinase A): > 150 µM (not active) | EC50 (Streptococcus): > 150 µM (not active)

Cc1csc(NC(=O)Nc2ccccc2[N+](=O)[O-])n1
EC50 [4]: 12.5 µM (active) | EC50 (H4): 94 µM (active)

O=[N+]([O-])c1cccc(-c2nnc(CNC3CC3)o2)c1
EC50 [1]: > 260 µM (inactive)

C(=C\c1nc(N2CCCCCC2)c2ccccc2n1)/c1ccccc1
AC50 [5]: 3.73 µM (active) | AC50 (INS1): 6.21 µM (active)

COc1ccc(-c2noc3c2-c2nc(-c4ccccc4C)sc2CC3)cc1
AC50 [5]: 0.689 µM (active)

COC(=O)c1ccc(CNC(=O)COC(=O)COc2ccc(OC)cc2)cc1
EC50 [2]: > 195 µM (not active)

CC1(C)CC(N/C=C2/C(=O)N(Cc3ccc4c(c3)OCO4)C(=O)c3ccccc32)CC(C)(C)N1
EC50 [6]: > 160 µM (inactive) | EC50 [7]: 5.68 µM (active)

N#C/C(=C(/O)c1ccco1)c1nc2ccccc2[nH]1
EC50 [6]: > 150 µM (inactive) | EC50 [7]: 4.11 µM (active)

Nc1cc(-c2ccco2)no1
EC50 [1]: 60.4 µM (active)

COC(=O)C1=C(c2ccc(OCc3ccccc3)cc2)C[C@@H]2CC[C@H]1N2C(=O)NCc1ccc(OC)c(OC)c1
AC50 [8]: 19.7 µM (active) | AC50 [9]: 30.1 µM (active)

COc1cc(/C=N/NC(=S)NC2CC3C=CC2C3)cc(OC)c1OC (stereo not drawn)
EC50 [1]: > 260 µM (inactive)

Nc1ncnc2c1ncn2[C@@H]1O[C@H](CO)C[C@H]1O [CORDYCEPIN]
EC50 [6]: > 150 µM (inconclusive) | EC50 [7]: 4.1 µM (active)

CN(Cc1ccc(N(C)C)cc1)C(=O)c1cc2ccccc2o1
EC50 [3]: > 150 µM (not active) | EC50 (Streptokinase A): > 150 µM (not active) | EC50 (Streptococcus): > 150 µM (not active)

NC(=O)CN1CCCC1=O
EC50 [2]: > 195 µM (not active)

Cc1ccc(NC(=O)Cn2c(CCC(=O)O)ccc2-c2cccs2)cc1
EC50 [1]: > 260 µM (inactive)

CCCc1cc(O)nc(SCc2csc(-c3ccccc3)n2)n1
EC50 [6]: > 160 µM (inactive) | EC50 [7]: 2.81 µM (active)

Cc1ccccc1-n1c(C)nc2ccccc21
EC50 [2]: > 195 µM (not active)

CCCc1nc(NC2CCCCC2)c(C#N)c2c1COC(C)(C)C2
AC50 [5]: 6.71 µM (active)

CCCOc1ccc(C(=O)NNC(=S)NC(=O)c2ccccc2[N+](=O)[O-])cc1
EC50 [3]: 2.79 µM (active) | EC50 (Streptokinase A): > 150 µM (not active) | EC50 (Streptococcus): 10.8 µM (active)

CC(=O)Oc1ccc(-c2ccc(C(=O)Nc3cccc(S(=O)(=O)N4CCOCC4)c3)cc2)cc1
AC50 [5]: 1.52 µM (active)
